For one test, the target named is T1, MCU (Homo sapiens, UniProt Q8NE86).
T1 construct: expressed in transfected cells; host or cells: HEK293A cells, transient co-transfection with the mitochondria-targeted aequorin vector
T1 sequence (Q8NE86 51-351): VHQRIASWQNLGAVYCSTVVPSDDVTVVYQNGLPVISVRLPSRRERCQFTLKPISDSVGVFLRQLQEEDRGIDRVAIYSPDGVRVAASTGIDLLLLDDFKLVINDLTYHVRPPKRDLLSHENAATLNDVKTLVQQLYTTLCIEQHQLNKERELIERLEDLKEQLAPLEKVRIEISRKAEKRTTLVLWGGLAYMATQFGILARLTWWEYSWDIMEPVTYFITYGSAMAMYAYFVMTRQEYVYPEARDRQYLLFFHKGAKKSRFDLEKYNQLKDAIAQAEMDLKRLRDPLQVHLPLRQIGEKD
T1 sequence (Q9H4I9 48-107 partner limits assumed): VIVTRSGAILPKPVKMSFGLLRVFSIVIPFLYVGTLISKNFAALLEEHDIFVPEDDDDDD
Kind of test: MCU-dependent mitochondrial Ca2+ influx in HEK293A cells overexpressing human MCU. It counts as cell-based. The conditions noted are these: pretreatment. From the text: Next, to investigate the molecular component of the mitochondrial calcium uniporter, MCU-dependent and MICU-dependent Ca^2+ influx were examined. […] The MCU-dependent increment of Ca^2+ influx was blocked by the DS16570511 pretreatment (Figure 5b). We then investigated the effects of the inhibitor on the regulatory subunit MICU1. Previous studies have shown that MICU1 facilitates mitochondrial Ca^2+ uptake through the presence of a high Ca^2+ level.[11],[22]
Figure 5 DS16570511 inhibits mitochondrial Ca^2+ influx by MCU or MICU1. (a) Effect of overexpression of MCU or MICU1 on mitochondrial Ca^2+ influx in HEK293A cells. (b) Effect of DS16570511 on MCU-dependent mitochondrial Ca^2+ uptake in HEK293A cells. (c) Effect of DS16570511 on MICU1-dependent mitochondrial Ca^2+ uptake in HEK293A cells. […]
In order to evaluate mitochondrial Ca^2+ uptake activity by MCU or MICU1, HEK293A cells were transiently transfected with the mitochondria-targeted aequorin vector and pcDNA3.1 vector containing human Mcu (NCBI Reference Sequence: NM_138357.2) or Micu1 (NM_001195518.1). One day after the transfection, the luminescence levels were measured as described above. MCU- or MICU1-dependent activity was calculated by subtracting the luminescence level of cells transfected with empty vector from that of cells expressing MCU or MICU1, respectively.

In test [1] the target is T2, mitochondrial calcium uniporter (Homo sapiens, UniProt Q8NE86).
T2 sequence (Q8NE86 51-351): T1 sequence (Q8NE86 51-351)
T2 sequence (Q9H4I9 48-107 partner limits assumed): T1 sequence (Q9H4I9 48-107 partner limits assumed)
Briefly: Aequorin assay: serum-induced mitochondrial Ca2+ influx in HEK293A cells expressing mitochondria-targeted aequorin. It counts as cell-based. More on the design: endogenous in cells; host or cells: HEK293A cells stably expressing mitochondria-targeted aequorin. The following applies: 10% fetal bovine serum, 20 min pretreatment, read-out: IC50, inhibition of serum-induced mitochondrial Ca2+ influx. The procedure:
In the first screening using the cell-based assay, application of 10% fetal bovine serum to the cells triggered a rapid increase of mitochondrial Ca^2+ level (Figure 1a). Pretreatment of the cells with DS16570511 inhibited the serum-induced mitochondrial Ca^2+ influx with an IC50 of 7 μM (Figures 1a and b). In order to eliminate broad channel inhibitors or chemicals affecting the aequorin-based detection system, a counter assay was carried out using HEK293A cells expressing aequorin in cytosol. In the assay, the concentration of DS16570511 used to decrease the serum-induced cytosolic Ca^2+ increase by 50% was ~50 μM.
Figure 1 DS16570511 inhibits mitochondrial Ca^2+ influx in HEK293A cells. (a) Representative raw data of serum-induced mitochondrial Ca^2+ influx in HEK293A cells. (b) Effect of DS16570511 on serum-induced mitochondrial Ca^2+ influx. The area under the curve of temporal aequorin activities is used for calculation of inhibitory activities. […]
For dynamic measurements of mitochondrial Ca^2+ levels in intact cells, HEK293A cells were stably transfected with pIRES-puro vector expressing mitochondria-targeted aequorin.[20] […] For induction of intracellular Ca^2+, the cells were treated with 10% fetal bovine serum, and luminescence levels were measured by using a Centro LB960 luminometer (Berthold Technologies, Oak Ridge, TN, USA).

Test [2] concerns mitochondrial Ca2+ levels in rat perfused heart. Kind of test: Mitochondrial Ca2+ overload in rat isolated perfused heart. The following applies: 10 min pretreatment. The procedure:
We investigated the effect of DS16570511 on mitochondrial Ca^2+ levels in a rat isolated perfused heart. In the normal condition of the perfusion assay, the Ca^2+ concentration of the perfusion buffer is 2.5 mM.[23] To induce mitochondrial Ca^2+ overload, Ca^2+ concentration in the perfusion buffer was increased from 2.5 mM to 5 mM or 7.5 mM.
Figure 6 DS16570511 inhibits mitochondrial Ca^2+ overload in isolated heart. Effect of DS16570511 on mitochondrial Ca^2+ levels in rat perfused heart. For induction of Ca^2+ overload in mitochondria ex vivo, Ca^2+ concentration was increased from 2.5 mM to 5 mM or 7.5 mM. The heart was treated with DS16570511 for 10 min before the high Ca^2+ treatment. Data are mean with S.E.M. from more than three independent samples.
The hearts were rapidly excised from 9-week-old male Wistar rats and perfused at 37 °C with Krebs-Ringer perfusion buffer (127.2 mM NaCl, 4.7 mM KCl, 2.5 mM CaCl2, 1.2 mM KH2PO4, 1.2 mM MgSO4, 25 mM NaHCO3 and 5.5 mM glucose (pH 7.4)) equilibrated with 95% O2/5% CO2. A balloon was inserted through the left atrium into the left ventricle. Heart rate and contractility were continuously recorded with a data acquisition system (PowerLab, ADInstruments, Bella Vista, NSW, Australia).

Molecules are shown by their SMILES.

`Cc1onc(-c2c(Cl)cccc2Cl)c1CNc1cccc(C(=O)c2cn(CCCC(=O)O)c3ccccc23)c1` [DS16570511]: the “effect on MCU-dependent increment of mitochondrial Ca2+ influx” value at MCU is “blocked”. In addition, the IC50 (in general, the concentration at which inhibition is half-maximal) in test [1] amounted to 7 µM. Further, the “effect on mitochondrial Ca2+ level, normal buffer” value in test [2] (2.5 mM Ca2+ buffer, 30 μM) is given as “no significant effect”. The “effect on mitochondrial Ca2+ increase induced by 5.0 mM Ca2+ buffer” value in test [2] (5.0 mM Ca2+ buffer) is reported as “blocked”. In addition, the “effect on mitochondrial Ca2+ overload induced by 7.5 mM Ca2+ buffer” value in test [2] (7.5 mM Ca2+ buffer) is “dose-dependently inhibited”.

The values above are taken from publication PMC5511861, “DS16570511 is a small-molecule inhibitor of the mitochondrial calcium uniporter” (Cell Death Discovery, 2017).
